# From the supplement of paper PMC10307832
# What was measured:
# Experiment in all cases: relative viability (nuclei count vs DMSO), 5 days (fraction); higher = more cells survive
# [1] = compound: Cc1ccc(F)c(NC(=O)Nc2ccc(-c3cccc4[nH]nc(N)c34)cc2)c1 [Linifanib]
# Method in brief: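 MetaXpress counted nuclei in 4× images of lung cancer cell lines that had been fixed, permeabilised and Hoechst-stained in one step. Before that, cells in 1536-well plates were kept overnight at 37 °C, pinned with five √10-spaced library-drug doses on vehicle-anchored plates, and cultured 5 days without medium change. Viability takes treated-well nuclei over vehicle-well nuclei and uses the median across plates. Plates were accepted only at control CV below 25% and at least one doubling.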
# [2] = compound: Cc1ccc(F)c(NC(=O)Nc2ccc(-c3cccc4[nH]nc(N)c34)cc2)c1 [Linifanib] + CC1(C)CCC(c2ccc(Cl)cc2)=C(CN2CCN(c3ccc(C(=O)NS(=O)(=O)c4ccc(N[C@H](CCN5CCOCC5)CSc5ccccc5)c(S(=O)(=O)C(F)(F)F)c4)cc3)CC2)C1 [Navitoclax] (partner 0.5 µM)
# Method in brief: (§1)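 Medians of duplicate plates are given as relative viability. That measure is the nuclei count in treated wells divided by the count in vehicle wells. Counts were taken on 4× images of lung cancer cell lines in 1536-well plates, 5 days after pin-tool dosing the day after seeding with one drug alone or a fixed anchor-drug dose plus five library-drug doses (not always all listed) in √10 steps.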
# [3] = compound: Cc1ccc(F)c(NC(=O)Nc2ccc(-c3cccc4[nH]nc(N)c34)cc2)c1 [Linifanib] + Cc1nc(NC(=O)N2CCC[C@H]2C(N)=O)sc1-c1ccnc(C(C)(C)C(F)(F)F)c1 [Alpelisib] (partner 2 µM)
# Method in brief: as §1
# [4] = compound: Cc1ccc(F)c(NC(=O)Nc2ccc(-c3cccc4[nH]nc(N)c34)cc2)c1 [Linifanib] + C[C@@H](Oc1cc(-c2cnn(C3CCNCC3)c2)cnc1N)c1c(Cl)ccc(F)c1Cl [Crizotinib] (partner 1 µM)
# Method in brief: as §1
# [5] = compound: Cc1ccc(F)c(NC(=O)Nc2ccc(-c3cccc4[nH]nc(N)c34)cc2)c1 [Linifanib] + CC(C)C[C@H](NC(=O)[C@H](Cc1ccccc1)NC(=O)c1cnccn1)B(O)O [Bortezomib] (partner 0.002 µM)
# Method in brief: as §1
# [6] = compound: Cc1ccc(F)c(NC(=O)Nc2ccc(-c3cccc4[nH]nc(N)c34)cc2)c1 [Linifanib] + O=C(c1cc(Cc2n[nH]c(=O)c3ccccc23)ccc1F)N1CCN(C(=O)C2CC2)CC1 [Olaparib] (partner 8 µM)
# Method in brief: as §1
# [7] = compound: Cc1ccc(F)c(NC(=O)Nc2ccc(-c3cccc4[nH]nc(N)c34)cc2)c1 [Linifanib] + CS(=O)(=O)CCNCc1ccc(-c2ccc3ncnc(Nc4ccc(OCc5cccc(F)c5)c(Cl)c4)c3c2)o1 [Lapatinib] (partner 2 µM)
# Method in brief: as §1
# [8] = compound: Cc1ccc(F)c(NC(=O)Nc2ccc(-c3cccc4[nH]nc(N)c34)cc2)c1 [Linifanib] + CS(=O)(=O)N1CCN(Cc2cc3nc(-c4cccc5[nH]ncc45)nc(N4CCOCC4)c3s2)CC1 [Pictilisib] (partner 1 µM)
# Method in brief: as §1
# [9] = compound: Cc1ccc(F)c(NC(=O)Nc2ccc(-c3cccc4[nH]nc(N)c34)cc2)c1 [Linifanib] + C[C@]1(O)C[C@@H](c2nc(-c3ccc4ccc(-c5ccccc5)nc4c3)c3c(N)nccn32)C1 [Linsitinib] (partner 1 µM)
# Method in brief: as §1
# [10] = compound: Cc1ccc(F)c(NC(=O)Nc2ccc(-c3cccc4[nH]nc(N)c34)cc2)c1 [Linifanib] + COc1cc2c(Oc3ccc(NC(=O)C4(C(=O)Nc5ccc(F)cc5)CC4)cc3F)ccnc2cc1OCCCN1CCOCC1 [Foretinib] (partner 0.25 µM)
# Method in brief: as §1
# [11] = compound: Cc1ccc(F)c(NC(=O)Nc2ccc(-c3cccc4[nH]nc(N)c34)cc2)c1 [Linifanib] + N=C(N)NC(=N)NCCc1ccccc1 [Phenformin] (partner 250 µM)
# Method in brief: as §1
# [12] = compound: Cc1ccc(F)c(NC(=O)Nc2ccc(-c3cccc4[nH]nc(N)c34)cc2)c1 [Linifanib] + COc1cccc2cc(-c3nc([C@H]4CC[C@H](C(=O)O)CC4)n4ncnc(N)c34)[nH]c12 [OSI-027] (partner 0.5 µM)
# Method in brief: as §1
# [13] = compound: Cc1ccc(F)c(NC(=O)Nc2ccc(-c3cccc4[nH]nc(N)c34)cc2)c1 [Linifanib] + CCNC(=O)c1noc(-c2cc(C(C)C)c(O)cc2O)c1-c1ccc(CN2CCOCC2)cc1 [Luminespib] (partner 0.01 µM)
# Method in brief: as §1
# [14] = compound: Cc1ccc(F)c(NC(=O)Nc2ccc(-c3cccc4[nH]nc(N)c34)cc2)c1 [Linifanib] + Nc1nc2[nH]cc(CCc3ccc(C(=O)N[C@@H](CCC(=O)O)C(=O)O)cc3)c2c(=O)[nH]1 [Pemetrexed] (partner 0.2 µM)
# Method in brief: as §1
# [15] = compound: Cc1ccc(F)c(NC(=O)Nc2ccc(-c3cccc4[nH]nc(N)c34)cc2)c1 [Linifanib] + Cc1nc(Nc2ncc(C(=O)Nc3c(C)cccc3Cl)s2)cc(N2CCN(CCO)CC2)n1 [Dasatinib] (partner 0.075 µM)
# Method in brief: as §1
Cell Line,relative viability ([1]; 0.03162 µM),relative viability ([1]; 0.1 µM),relative viability ([1]; 0.3162 µM),relative viability ([3]; first compound 0.03162 µM),relative viability ([3]; first compound 0.1 µM),relative viability ([3]; first compound 0.3162 µM),relative viability ([4]; first compound 0.03162 µM),relative viability ([4]; first compound 0.1 µM),relative viability ([4]; first compound 0.3162 µM),relative viability ([5]; first compound 0.03162 µM),relative viability ([5]; first compound 0.1 µM),relative viability ([5]; first compound 0.3162 µM),relative viability ([7]; first compound 0.03162 µM),relative viability ([7]; first compound 0.1 µM),relative viability ([7]; first compound 0.3162 µM),relative viability ([8]; first compound 0.03162 µM),relative viability ([8]; first compound 0.1 µM),relative viability ([8]; first compound 0.3162 µM),relative viability ([9]; first compound 0.03162 µM),relative viability ([9]; first compound 0.1 µM),also measured
NCI-H1299,1.02,1.02,1.03,1.11,1.02,1.06,0.899,0.956,0.97,1.03,1.01,1.02,0.951,0.95,0.994,0.575,0.885,0.829,0.975,0.996,relative viability ([2]; first compound 0.03162 µM): 1.06; relative viability ([2]; first compound 0.1 µM): 1.08; relative viability ([2]; first compound 0.3162 µM): 1; relative viability ([6]; first compound 0.03162 µM): 0.978; relative viability ([6]; first compound 0.1 µM): 0.958; relative viability ([6]; first compound 0.3162 µM): 0.959; relative viability ([9]; first compound 0.3162 µM): 0.998; relative viability ([10]; first compound 0.03162 µM): 1.1; relative viability ([10]; first compound 0.1 µM): 1.11; relative viability ([10]; first compound 0.3162 µM): 1.04
NCI-H1563,0.904,1.04,1.02,0.901,0.956,0.956,0.862,0.852,0.879,0.952,0.87,0.812,0.963,1.05,0.913,0.669,0.665,0.629,1.14,1.33,relative viability ([11]; first compound 0.03162 µM): 0.669; relative viability ([11]; first compound 0.1 µM): 0.691; relative viability ([11]; first compound 0.3162 µM): 0.605; relative viability ([9]; first compound 0.3162 µM): 1.08; relative viability ([12]; first compound 0.03162 µM): 0.718; relative viability ([12]; first compound 0.1 µM): 0.814; relative viability ([12]; first compound 0.3162 µM): 0.716; relative viability ([10]; first compound 0.03162 µM): 0.954; relative viability ([10]; first compound 0.1 µM): 0.968; relative viability ([10]; first compound 0.3162 µM): 0.887; relative viability ([13]; first compound 0.03162 µM): 0.558; relative viability ([13]; first compound 0.1 µM): 0.504; relative viability ([13]; first compound 0.3162 µM): 0.512; relative viability ([14]; first compound 0.03162 µM): 0.803; relative viability ([14]; first compound 0.1 µM): 0.911; relative viability ([14]; first compound 0.3162 µM): 0.692; relative viability ([15]; first compound 0.03162 µM): 0.452; relative viability ([15]; first compound 0.1 µM): 0.484; relative viability ([15]; first compound 0.3162 µM): 0.496
